Data reported in patent publication US6437138B1, “3-pyridyloxymethyl heterocyclic ether compounds useful in controlling chemical synaptic transmission” (priority 1996, dated 2002).
Where a name gives a salt, the structure may show the parent alone. Read-outs that look alike come from different tables or passages of the source.

Assays:
[1] = molecular target: neuronal nicotinic cholinergic channels in IMR-32 cells (Homo sapiens, UniProt P30926+P32297); test: 86Rb+ efflux in IMR-32 cells (activation, or inhibition of efflux elicited by (S)-nicotine); format: cell-based; details: for EC50 / IMR-32 maximal response / Emax: 86Rb+ efflux; for EC50: activation; for IMR-32 maximal response / Emax: percent relative to the response elicited by 100 μM (S)-nicotine; for inhibition at 1 µM / Emax / inhibition at 10 µM: IMR-32; for Emax: read-out: IMR-32 maximal response; for inhibition at 10 µM: single dose 10 μM
Source text: For the purpose of directly evaluating the ability of test compounds to functionally activate or inhibit certain subtypes of neuronal nicotinic cholinergic channels, an assay to determine ^86Rb^+Efflux in IMR-32 cells was employed (Protocol B below).
B. Protocols for the Determination of Functional Effects of Cholinerzic Channel Receptor Ligands on Synaptic Transmission
Cells of the IMR-32 human neuroblastoma clonal cell line (ATCC, Rockville, Md.) were maintained in a log phase of growth according to established procedures (Lukas, 1993). Experimental cells were seeded at a density of 500,000 cells/ml into a 24-well tissue culture dish. Plated cells were allowed to proliferate for at least 48 hours before loading with 2 μCi/ml of ^86Rb^+ (35 Ci/mmol) overnight at 37° C. The ^86Rb^+ efflux assays were performed according to previously published protocols (Lukas, R. J., J. Pharmacol. Exp. Ther., 265: 294-302, 1993) except serum-free Dulbecco's Modified Eagle's Medium was used during the ^86Rb^+ loading, rinsing, and agonist-induced efflux steps.
EC50 data and maximal responses (reported as percent relative to the response elicited by 100 μM (S)-nicotine) are shown for selected compounds of the invention. The inhibition data (given for a larger number of compounds) reflect inhibition of the efflux elicited by 100 μM (S)-nicotine for either a single dose (% inhibition at 1 μM or at 10 μM) or over a range of doses (IC50 of inhibition). […] This finding is in agreement with the results of others who have linked dopamine release, which is dependent upon the ion flux in synaptic transmission, to binding at nicotinic receptors (cf., for example, Lippiello and Caldwell, U.S. Pat. No. 5,242,935, issued Sep. 7, 1993; Caldwell and Lippiello, U.S. Pat. No. 5,248,690, issued Sep. 28, 1993; and Wonnacott et al., Prog. Brain Res., 79: 157-163 (1989)).

[2] = molecular target: neuronal nicotinic cholinergic channel receptors (Rattus norvegicus, UniProt P09483+P12390); details: read-out: Binding Ki
Sequence of neuronal nicotinic cholinergic channel receptors (P09483 31-630): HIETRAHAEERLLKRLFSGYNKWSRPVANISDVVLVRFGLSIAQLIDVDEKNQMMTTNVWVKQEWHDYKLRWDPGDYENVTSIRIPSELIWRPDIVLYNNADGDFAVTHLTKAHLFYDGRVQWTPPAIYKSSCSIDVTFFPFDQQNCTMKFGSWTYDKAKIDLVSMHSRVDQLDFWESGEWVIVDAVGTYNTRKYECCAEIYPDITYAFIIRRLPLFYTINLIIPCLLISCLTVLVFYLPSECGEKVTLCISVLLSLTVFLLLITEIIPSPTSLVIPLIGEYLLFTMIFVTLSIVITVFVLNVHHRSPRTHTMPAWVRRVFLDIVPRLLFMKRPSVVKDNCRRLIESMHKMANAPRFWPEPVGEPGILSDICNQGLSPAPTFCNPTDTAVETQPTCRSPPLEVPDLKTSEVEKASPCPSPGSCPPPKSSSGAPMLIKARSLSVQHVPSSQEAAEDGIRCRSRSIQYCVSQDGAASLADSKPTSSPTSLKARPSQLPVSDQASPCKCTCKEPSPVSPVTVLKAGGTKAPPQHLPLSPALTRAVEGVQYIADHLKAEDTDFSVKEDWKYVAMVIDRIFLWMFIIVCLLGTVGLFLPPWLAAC
Sequence of neuronal nicotinic cholinergic channel receptors (P12390 25-500): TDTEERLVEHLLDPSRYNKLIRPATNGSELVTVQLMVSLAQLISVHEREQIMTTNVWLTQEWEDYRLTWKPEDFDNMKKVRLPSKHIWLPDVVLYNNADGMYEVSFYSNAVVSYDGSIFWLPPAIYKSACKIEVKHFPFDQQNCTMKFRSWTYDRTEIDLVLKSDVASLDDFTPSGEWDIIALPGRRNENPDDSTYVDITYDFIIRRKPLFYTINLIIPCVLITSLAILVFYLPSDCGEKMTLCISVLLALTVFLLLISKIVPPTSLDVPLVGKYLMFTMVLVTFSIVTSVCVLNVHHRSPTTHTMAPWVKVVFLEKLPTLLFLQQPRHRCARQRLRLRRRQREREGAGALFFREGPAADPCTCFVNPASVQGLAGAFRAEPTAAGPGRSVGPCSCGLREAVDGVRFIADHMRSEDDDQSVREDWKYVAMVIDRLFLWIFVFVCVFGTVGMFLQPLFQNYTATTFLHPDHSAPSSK
Description: A. Protocol For Determination of Nicotinic Cholinergic Channel Receptor Binding Potencies of Ligands
Binding of [^3H]-cytisine ([^3H]-CYT) to nicotinic receptors was accomplished using crude synaptic membrane preparations from whole rat brain (Pabreza et al., Molecular Pharmacol, 1990, 39:9). Washed membranes were stored at −80° C. prior to use. Frozen aliquots were slowly thawed and resuspended in 20 volumes of buffer (containing: 120 mM NaCl, 5 mM KCl, 2 mM MgCl2, 2 mM CaCl2 and 50 mM Tris-Cl, pH 7.4 @ 4° C.). After centrifuging at 20,000×g for 15 minutes, the pellets were resuspended in 30 volumes of buffer. Homogenate (containing 125-150 μg protein) was added to triplicate tubes containing concentrations of test compound and [^3H]-CYT (1.25 nM) in a final volume of 500 μL. Samples were incubated for 60 minutes at 4° C., then rapidly filtered through Whatman GF/B filters presoaked in 0.5% polyethyleneimine using 3×4 mL of ice-cold buffer. The filters are counted in 4 mL of Ecolume® (ICN). Nonspecific binding was determined in the presence of […] (−)-nicotine and values were expressed as a percentage of total binding.

[3] = displacement of [3H]-cytisine (1.25 nM), whole rat brain membranes, Ki from IC50 by Cheng and Prusoff correction
[4] = inhibition of the efflux elicited by 100 μM (S)-nicotine, single dose 1 μM
[5] = inhibition of the efflux elicited by 100 μM (S)-nicotine

In the case of “5-(5,5-Dimethyl-1,3-hexadienyl)-6-chloro-3-(2-(R)-pyrrolidinylmethoxy)pyridine Citric Acid Salt [Example 55]”, the EC50 [1] is reported as greater than 10000 µM, the IMR-32 maximal response [1] is reported as 24.5% and the Ki [2, 3] is reported as 4.6 nM.
With “5-Hexenyl-3-(1-methyl-2-(S)-pyrrolidinylmethoxy)pyridine Dihydrochloride [Example 12]” the “% Inhibition @ 1 μM” value [1, 4] was 25% and the Ki [2, 3] was 0.32 nM.
Work on `CN1CCC[C@H]1COc1cncc(-c2cccc([N+](=O)[O-])c2)c1` [Example 1, 5-(3-Nitrophenyl)-3-(1-methyl-2-(S)-pyrrolidinylmethoxy)pyridine Dihydrochloride] yielded an inhibition at 1 µM [1, 4] of 13% and a Ki [2, 3] of 0.46 nM.
In the case of `CN1CCC[C@H]1COc1cncc(-c2cccc3ccccc23)c1` [Example 2, 5-(1-Naphthalenyl)-3-(1-methyl-2-(S)-pyrrolidinylmethoxy)pyridine Dihydrochloride], the inhibition at 1 µM [1, 4] is reported as 47% and the Ki [2, 3] is reported as 4.2 nM.
`COc1ccc(-c2cncc(OC[C@@H]3CCCN3C)c2)cc1` [Example 3, 5-(4-Methoxyphenyl)-3-(1-methyl-2-(S)-pyrrolidinylmethoxy)pyridine Dihydrochloride] showed an inhibition at 1 µM [1, 4] of 39% and a Ki [2, 3] of 0.32 nM.
Molecule `CN1CCC[C@H]1COc1cncc(-c2ccco2)c1` [Example 5, 5-(2-Furanyl-3-(1-methyl-2-(S)-pyrrolidinylmethoxy)pyridine Dihydrochloride] has an inhibition at 1 µM [1, 4] of 27% and a Ki [2, 3] of 0.19 nM.
Work on `CN1CCC[C@H]1COc1cncc(-c2cccs2)c1` [Example 6, 5-(2-Thienyyl)-3-(1-methyl-2-(S)-pyrrolidinylmethoxy)pyridine Dihydrochloride] yielded an inhibition at 1 µM [1, 4] of 28% and a Ki [2, 3] of 0.31 nM.
In the case of `CN1CCC[C@H]1COc1cncc(-c2cccnc2)c1.Cl.Cl` [Example 7, 5-(3-Pyridyl)-3-(1-methyl-2-(S)-pyrrolidinylmethoxy)pyridine Dihydrochloride], the Ki [2, 3] is reported as 0.27 nM and the melting point is reported as 155 to 160 °C.
With `CC(=O)c1cncc(OC[C@@H]2CCCN2C)c1` [Example 10, 5-Acetyl-3-(1-methyl-2-(S)-pyrrolidinylmethoxy)pyridine Dihydrochloride] the inhibition at 1 µM [1, 4] was 32% and the Ki [2, 3] was 1.2 nM.
For `CN1CCC[C@H]1COc1cncc(-c2ccc(F)cc2)c1` [Example 11, 5-(4-Fluorophenyl)-3-(1-methyl-2-(S)-pyrrolidinylmethoxy)pyridine Dihydrochloride], the inhibition at 1 µM [1, 4] was 38% and the Ki [2, 3] was 0.11 nM.
With `CN1CCC[C@H]1COc1cncc(/C=C/c2ccccc2)c1` [Example 18, 5-trans-(2-Phenylethenyl)-3-(1-methyl-2-(S)-pyrrolidinylmethoxy)pyridine Dihydrochloride] the inhibition at 1 µM [1, 4] was 43% and the Ki [2, 3] was 0.24 nM.
Molecule `CN1CCC[C@H]1COc1cncc(C(=O)N2CCCC2)c1` [Example 19, 5-(1-Pyrrolidinylcarbonyl)-3-(1)-methyl-2-(S)-pyrrolidinylmethoxy)pyridine Dihydrochloride] has an inhibition at 1 µM [1, 4] of 14% and a Ki [2, 3] of 20 nM.
`CN1CCC[C@H]1COc1cncc(CCc2ccccc2)c1` [Example 21, 5-(2-Phenylethyl)-3-(1-methyl-2-(S)-pyrrolidinylmethoxy)pyridine Dihydrochloride] gave an inhibition at 1 µM [1, 4] of 22% and a Ki [2, 3] of 0.22 nM.
Work on `COC(=O)c1cncc(OC[C@@H]2CCCN2C)c1` [Example 27, 5-Methoxycarbonol-3-(1-methyl-2-(S)-pyrrolidinylmethoxy)pyridine Dihydrochloride] yielded an inhibition at 1 µM [1, 4] of 26% and a Ki [2, 3] of 1.5 nM.
`CN1CCC[C@H]1COc1cncc(CCc2ccncc2)c1` [Example 29, 5-(2-(4-Pyridinnyl)ethyl)-3-(1-methyl-2-(S)-pyrrolidinnylmethoxy)pyridine Trihydrochloride] gave an inhibition at 1 µM [1, 4] of 32% and a Ki [2, 3] of 0.064 nM.
With `CN1CCC[C@H]1COc1cncc(-c2ccc3ccccc3c2)c1` [Example 31, 5-(2-Naphthalenyl-3-(1-methyl-2-(S)-pyrrolidinylmethoxy)pyridine Dihydrochloride] the inhibition at 1 µM [1, 4] was 37% and the Ki [2, 3] was 0.33 nM.
Work on `Cl.Cl.Clc1ncc(OC[C@@H]2CCCN2)cc1-c1cccnc1` [Example 34, 5-(3-Pyridinyl)-6-chloro-3-(2-(S)-pyrrolidinylmethoxy)pyridine Dihydrochloride] yielded an Emax [1] of 88%, a Ki [2, 3] of 0.021 nM and a melting point of 195 to 198 °C.
With `CN1CCC[C@H]1COc1cncc(-c2cnc3ccccc3c2)c1` [Example 35, 5-(3-Ouinolinyl)-3-(1-methyl-2-(S)-pyrrolidinylmethoxy)pyridine Trihydrochloride] the inhibition at 1 µM [1, 4] was 34% and the Ki [2, 3] was 0.39 nM.
With `CN1CCC[C@H]1COc1cncc(-c2cc(C(F)(F)F)cc(C(F)(F)F)c2)c1` [Example 37, 5-(3,5-bis(Trifluoromehyl)phenyl)-3-(1-methyl-2-(S)-pyrrolidinylmethoxy)pyridine Dihydrochloride] the inhibition at 1 µM [1, 4] was 41% and the Ki [2, 3] was 2.4 nM.
Work on `CN1CCC[C@H]1COc1cncc(-c2ccc(F)c(Cl)c2)c1` [Example 42, 5-(3-Chloro-4-fluorolphenyl)-3-(1-methyl-2-(S)-pyrrolidinylmethoxy)pyridine Dihydrochloride] yielded an inhibition at 1 µM [1, 4] of 38% and a Ki [2, 3] of 0.055 nM.
With `CN1CCC[C@H]1COc1cncc(-c2ccccc2C=O)c1` [Example 44, 5-(2-Formylphenyl)-3-(1-methyl-2-(S)-pyrrolidinylmethoxy)pyridine Dihydrochloride] the inhibition at 1 µM [1, 4] was 30%, the inhibition at 10 µM [1, 5] was 97% and the Ki [2, 3] was 0.56 nM.
For `Cc1ccccc1-c1cncc(OC[C@@H]2CCCN2C)c1` [Example 45, 5-(2-Methylphenyl)-3-(1-methyl-2-(S)-pyrrolidinylmethoxy)pyridine Dihydrochloride], the inhibition at 1 µM [1, 4] was 41%, the inhibition at 10 µM [1, 5] was 100% and the Ki [2, 3] was 1.1 nM.
With `CN1CCC[C@H]1COc1cncc(-c2ccc(C(F)(F)F)cc2)c1` [Example 46, 5-(4-(Trifluoromethyl)phenyl)-3-(1)-methyl-2-(S)-pyrrolidinylmethoxy)pyridine Dihydrochloride] the inhibition at 1 µM [1, 4] was 37% and the Ki [2, 3] was 0.15 nM.
`CCCCC#Cc1cncc(OC[C@@H]2CCN2)c1.Cl.Cl` [Example 58, 5-Hexynyl-3-(2-(S)-azetidinylmethoxy)pyridine Dihydrochloride] gave an EC50 [1] of 0.8 µM, an IMR-32 maximal response [1] of 47% and a Ki [2, 3] of 0.056 nM.
With `CN1CCC[C@H]1COc1cncc(-c2ccccc2)c1.Cl.Cl` [Example 90, 5-Phenyl-3-(1-methyl-2-(S)-pyrrolidinylmethoxy)pyridine Dihydrochloride] the Ki [2, 3] was 0.111 nM and the melting point was 88 to 90 °C.
`CN1CC[C@@H]1COc1cncc(-c2ccsc2)c1` [Example 91, 5-(3-Thienyl)-3-(1-methyl-2-(R)-azetdinylmethoxy)pyridine Dihydrochloride] gave a Ki [2] of 1.84 nM.
`CN1CCC[C@@H]1COc1cnc(Cl)c(-c2cncnc2)c1` [Example 180, 6-Chloro-3-(1-methyl-2-(R)-pyrrolidinylmethoxy)-5-pyrimidinylpyridine Hydrochloride] showed a Ki [2, 3] of 4.8 nM.
`C=Cc1cc(OC[C@@H]2CCCN2)cnc1Cl.Cl` [Example 191, 6-Chloro-5-ethenyl-3-(2-(S)-pyrrolidinylmethoxy)pyridine Hydrochloride] gave an Emax [1] of 106% and a melting point of 195 to 197 °C.
With `C=Cc1cc(OC[C@@H]2CCCN2)cnc1C=C.Cl` [Example 193, 5,6-Diethenyl-3-(2-(S)-pyrrolidinylmethoxy)pyridine Hydrochloride] the Emax [1] was 9.5% and the melting point was 186 to 188 °C.
